These results are taken from patent publication US11505531B2 (SOUTHERN RESEARCH INSTITUTE, priority 2018, dated 2022).

The subject of one data set is TGF-β mediated by TSP-1. Description: Cell-based assay of inhibition of TGF-β mediated by TSP-1. To be noted: for inhibition at 0.01 µM / inhibition at 0.1 µM / inhibition at 1 µM / IC50: Homo sapiens; for inhibition at 0.01 µM: At 10 nM; for inhibition at 0.01 µM / inhibition at 0.1 µM / inhibition at 1 µM: read-out: Inhibition of TGF-β mediated by TSP-1 cell-based assay at [Inhibitor]; for inhibition at 0.1 µM: At 100 nM; for IC50: assay not stated, given only for compounds tested in the cell-based assay. Details: species or system human. The method, then: To specifically assess activity of compounds in liver cell specific assays, two different assays were used. In the first, human hepatic stellate cells were incubated overnight in low serum media to condition the media with secreted latent […]. Purified TSP1 either preincubated with compounds or not will be added to cultures and then conditioned media harvested to assess TGF-β biological activity using the R&D Systems ELISA as above. Hepatic stellate cells will be purchased from commercial sources. Although hepatic stellate cells are the primary drivers of liver fibrosis, conditions which drive liver fibrosis can induce hepatocyte TSP-1 expression which can then have paracrine effects on controlling TGF-β activation in hepatic stellate cells. Furthermore, TGF-β can negatively impact hepatocyte regeneration following injury. Therefore, the ability of compounds to block TSP-1 activation of latent TGF-β will also be assessed in cultured primary human hepatocytes following the protocol described for the hepatic stellate cells. Similar approaches have successfully been used to screen compounds which inhibit human myeloma cell derived latent TGF-β activation by TSP-1 (Lu et al. (2016) Am J Pathol 186:678-690).

Data set [1] addresses T1, TGF-β mediated by TSP-1 (purified human platelet TSP-1 + recombinant latent TGF-β1) (Homo sapiens, UniProt P07996).
T1 construct: purified human platelet TSP-1 was incubated with compounds; tissue R&D Systems (latent TGF-β1 only); host or cells: human platelets (TSP-1)
Description: In vitro ELISA assay: TSP-1 incubated with compound, then with recombinant latent TGF-β1; active TGF-β detected. Type of data set: biochemical. To be noted: read-out: Inhibition of TGF-β mediated by TSP-1 in vitro Elisa assay at [Inhibitor]; for inhibition at 0.0001 µM: At 100 pM. The method, then: For initial screening, an ELISA-based screening assay was used in which purified human platelet TSP-1 was incubated with compounds and then incubated with recombinant latent TGF-β1 (purchased from R&D Systems). Activity is measured in a commercially available ELISA which detects only active TGF-β (R &D Systems). Activity in the presence of compounds is compared to activity in TSP-1+latent TGF-β samples without inhibitory compounds (Lu et al. (2016) Am J Pathol 186:678-690).
(In an ELISA, binding on a coated surface is turned into a signal by an enzyme label.)

The next data set deals with CAG human myeloma cells. Description: SCID-tibia MM model, tumor burden (bioluminescence, serum Ig kappa). To be noted: LSKL 30 mg/kg/day by subcutaneous osmotic pump, 2 and 4 weeks. It counts as in vivo, SCID mice. How it is done: Referring to FIG. 2A and FIG. 2B, CAG human myeloma cells were injected into the intratibial marrow space of SCID mice. After 2 weeks, tumors were imaged by bioluminescence and serum 1 g kappa levels measured. Mice were randomized to equalize 1 g kappa levels. Osmotic pumps were implanted subcutaneously to deliver saline or LSKL peptide (30 mg/kg/day) (n=10/group). Tumors were imaged and serum 1 g kappa levels measured at 2 and 4 weeks of treatment. Data are means±SEM. Bioluminescence; *p=0.019 ANOVA, serum kappa; p=0.037, t-test.

For data set [2] the following is noted: cited from earlier work.
The conditions of data set [3]: 30 mg/kg i.p., 3 times weekly, 15 weeks; cited from earlier work.
A further data set relates to CAG-heparanase MM cells. Description: PAI-1 promoter luciferase reporter assay of conditioned media of TSP1-treated CAG-heparanase MM cells. It counts as cell-based, human. Particulars: cells treated with 67 nM TSP1. How it is done:
Referring to FIG. 4B, CAG-heparanase MM cells were treated with 67 nM TSP1 and conditioned media were assessed for TGF-β activity using PAI-1 promoter luciferase reporter assay. There is ˜[…] TGF-β in the added TSP1 and LSKL blocks 80% of the CAG-heparanase MM cell generated TGF-β activity.
On the technique in general: In a reporter assay the amount or activity of a reporter protein is the signal.

The test system of the next data set is CAG MM cells. Description: Phospho-Smad 2 immunoblot in TSP1-treated CAG MM cells. It counts as cell-based, human. To be noted: 30 nM TSP1 for 6 hrs ± LSKL. The method, then:
Referring to FIG. 4A, CAG MM cells were incubated with 30 nM TSP1 for 6 hrs±LSKL or SLLK. Cell lysates were immunoblotted for phosphor-Smad 2. Blots were stripped and reprobed for total Smad 2/3 and GAPDH. Results are normalized to GAPDH (untreated controls=1). LSKL reduces TSP1 induced treatment or luciferase activity in cells treated with active TGF-β (not shown).
In general terms: A western blot detects proteins with antibodies after separation by electrophoresis.

A further data set has as its system phospho-Smad 2. Description: Phospho-Smad 2 staining of tibiae from mice injected with CAG MM cells. It counts as in vivo. To be noted: 4 weeks of treatment. The method, then: Referring to FIG. 3A-C, at 4 weeks of treatment, tibiae from mice injected with CAG MM cells were fixed and stained with antibody to phosphor-Smad 2. Left panels are from 2 different saline treated mice and the right panels are from LSKL-treated mice. Pixels of brown staining were quantified in 4 fields per animal. 5-6 animals per group were analyzed. Data are the percent area exceeding the threshold for positive staining (FIG. 3A). […] P=0.004.

A further data set has as its system MSCs. Description: Osteoblast differentiation by MSCs under osteogenic conditions (alkaline phosphatase staining, Runx2 RT-PCR). Type of data set: cell-based. To be noted: osteogenic media, TSP1 10 nM + LSKL 25 μM, 20 days. The method, then:
Referring to FIG. 1A, MSCs were grown to confluence in basal (control) media. Cells were treated with control growth media, osteogenic media, or osteogenic media with TGF-β (5 ng/mL) or stripped TSP1 (10 nM), TSP1+LSKL (25 μM), TSP1+SLLK (25 μM control peptide), or TSP1+anti-TGF-β (5 μg/mL). Cultures were fed daily for 20 days. Alkaline phosphatase staining is representative of triplicate wells.
Referring to FIG. 1B, cells were treated every 2 days for 20 days with MSC growth media (control) or osteogenic media with TGF-β (5 ng/mL) or TSP1 (10 nM)±daily treatment with 25 μM LSKL or SLLK peptides. RNA isolated from cells was used for RT-PCR analysis of Runx2 expression. Samples were run in duplicate and each experimental treatment in triplicate.

T1 sequence (P07996 19-1170): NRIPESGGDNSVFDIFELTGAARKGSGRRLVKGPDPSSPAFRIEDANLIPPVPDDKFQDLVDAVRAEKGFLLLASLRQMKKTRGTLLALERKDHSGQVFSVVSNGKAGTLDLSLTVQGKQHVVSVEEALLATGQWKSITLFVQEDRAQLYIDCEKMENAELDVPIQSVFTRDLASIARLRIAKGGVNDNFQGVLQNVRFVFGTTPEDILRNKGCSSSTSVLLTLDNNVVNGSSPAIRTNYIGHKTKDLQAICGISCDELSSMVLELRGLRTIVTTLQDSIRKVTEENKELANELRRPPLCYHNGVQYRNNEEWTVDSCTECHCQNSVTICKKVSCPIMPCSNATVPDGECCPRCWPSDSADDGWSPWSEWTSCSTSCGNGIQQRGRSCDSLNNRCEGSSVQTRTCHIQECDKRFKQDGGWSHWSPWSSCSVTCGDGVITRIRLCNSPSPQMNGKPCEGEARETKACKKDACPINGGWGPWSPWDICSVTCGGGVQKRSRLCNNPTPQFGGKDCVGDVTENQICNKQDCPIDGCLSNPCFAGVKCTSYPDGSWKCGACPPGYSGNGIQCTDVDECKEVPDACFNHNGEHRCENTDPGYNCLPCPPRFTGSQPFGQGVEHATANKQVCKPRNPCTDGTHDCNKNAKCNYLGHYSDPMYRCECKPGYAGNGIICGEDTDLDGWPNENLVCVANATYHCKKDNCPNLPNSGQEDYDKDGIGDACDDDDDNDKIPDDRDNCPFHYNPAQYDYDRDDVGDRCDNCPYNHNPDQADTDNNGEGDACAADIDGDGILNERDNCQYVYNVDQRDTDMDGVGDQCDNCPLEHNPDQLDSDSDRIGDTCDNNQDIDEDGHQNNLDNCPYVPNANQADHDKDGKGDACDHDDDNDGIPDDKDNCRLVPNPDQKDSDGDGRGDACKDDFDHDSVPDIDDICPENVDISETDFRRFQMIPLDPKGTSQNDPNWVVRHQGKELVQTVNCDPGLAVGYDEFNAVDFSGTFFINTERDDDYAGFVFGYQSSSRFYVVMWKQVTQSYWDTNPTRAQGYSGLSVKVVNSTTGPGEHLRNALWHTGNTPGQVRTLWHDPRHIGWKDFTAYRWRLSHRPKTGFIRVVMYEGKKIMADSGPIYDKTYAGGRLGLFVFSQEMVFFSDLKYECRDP

As a reminder, the inhibition is the drop in the measured response relative to a control, in per cent. In the case of `CC1(C)NC(=O)[C@H](Cc2ccc(C(N)=O)cc2)NC1=O` [Compound 11, (S)-4-((5,5-dimethyl-3,6-dioxopiperazin-2-yl)methyl)benzamide], in the data set on TGF-β mediated by TSP-1, the inhibition at 0.01 µM turned out to be 25%, the inhibition at 0.1 µM is 39% and the inhibition at 1 µM is 40%.

What is called IC50 is the concentration that inhibits the measured activity by half. Consider `NCCCC[C@@H]1NC(=O)C2(CCCC2)NC1=O` [Compound 7], for which, in the data set with TGF-β mediated by TSP-1, the inhibition at 0.01 µM was found to be 72%, the inhibition at 0.1 µM was determined as 89%, the inhibition at 1 µM was determined as 92% and the IC50 stood at 0.85 nM.

For `Nc1ccc(C[C@@H]2NC(=O)C3(CCCCC3)NC2=O)cc1` [Compound 15, (S)-3-(4-aminobenzyl)-1,4-diazaspiro[5.5]undecane-2,5-dione], in the data set with TGF-β mediated by TSP-1, the inhibition at 0.01 µM amounted to 49%, the inhibition at 0.1 µM came out at 85% and the inhibition at 1 µM was 94%.

Regarding `Nc1ccc(C[C@@H]2NC(=O)C3(CCCC3)NC2=O)cc1` [Compound 9, (S)-8-(4-aminobenzyl)-6,9-diazaspiro[4.5]decane-7,10-dione], in the data set with TGF-β mediated by TSP-1, the inhibition at 0.01 µM was determined as 40%, the inhibition at 0.1 µM is 92%, the inhibition at 1 µM was more than 100% and 11 nM corresponded to half-maximal inhibition (IC50).

For `Nc1ccc(C[C@@H]2NC(=O)C3(CCC3)NC2=O)cc1` [Compound 8, (S)-7-(4-aminobenzyl)-5,8-diazaspiro[3.5]nonane-6,9-dione], in the data set with TGF-β mediated by TSP-1, the inhibition at 0.01 µM turned out to be 62%, the inhibition at 0.1 µM turned out to be 89%, the inhibition at 1 µM is 92% and the IC50 was 4 nM.

In the case of `CC1(C)NC(=O)[C@H](CCCCN)NC1=O` [Compound 2, (S)-6-(4-aminobutyl)-3,3-dimethylpiperazine-2,5-dione], in the data set on TGF-β mediated by TSP-1, the inhibition at 0.01 µM is 38%, the inhibition at 0.1 µM amounted to 71% and the inhibition at 1 µM was 76%. Further, in data set [1], the inhibition at 10 pM came out at 73%, the inhibition at 50 pM worked out at 91% and the inhibition at 0.0001 µM came to 89%.

Take `NC(=O)c1ccc(C[C@@H]2NC(=O)CNC2=O)cc1` [Compound 12, (S)-4-((3,6-dioxopiperazin-2-yl)methyl)benzamide]: in the data set with TGF-β mediated by TSP-1, the inhibition at 0.01 µM amounted to 40%, the inhibition at 0.1 µM amounted to 65.6% and the inhibition at 1 µM was found to be 68%.

Regarding LSKL, the MM tumor burden result in the data set with CAG human myeloma cells was “Reduces MM Tumor Burden”. In [2], the plasma stability half-life is 2.1 min. Besides, in data set [3], the “necropsy findings after chronic treatment” value is “no inflammation, no tumors in all major organs, and no impairment of wound healing”. Moreover, the “block of CAG-heparanase MM cell generated TGF-β activity” value in the data set on CAG-heparanase MM cells amounted to 80%. Also, the “TGF-β activity (phospho-Smad 2) in CAG MM cells” value with CAG MM cells is “Reduces TGF-B Activity”. In the data set with phospho-Smad 2, the “phospho-Smad 2 in the bone marrow” value was “Reduces Phospho-Smad 2”. In addition, the “osteoblast differentiation by MSCs” value in the data set with MSCs was “Increases Osteoblast Differentiation”.

As to `NCCC[C@@H]1NC(=O)C2(CCCC2)NC1=O` [Compound 14, (S)-8-(3-aminopropyl)-6,9-diazaspiro[4.5]decane-7,10-dione], in the data set on TGF-β mediated by TSP-1, the inhibition at 0.01 µM stood at 54%, the inhibition at 0.1 µM amounted to 85% and the inhibition at 1 µM came out at 90%.

Consider `CC1(C)NC(=O)[C@@H](CCCCN)NC1=O` [Compound 10, (R)-6-(4-aminobutyl)-3,3-dimethylpiperazine-2,5-dione], for which the “Inhibition of TGF-β mediated by TSP-1 cell-based assay (result in words)” value with TGF-β mediated by TSP-1 is “Inactive”.

As for `Nc1ccc(C[C@@H]2NC(=O)CNC2=O)cc1` [Compound 3, (S)-3-(4-aminobenzyl)piperazine-2,5-dione], in the data set on TGF-β mediated by TSP-1, the inhibition at 0.01 µM was determined as 13%, the inhibition at 0.1 µM was 32% and the inhibition at 1 µM turned out to be 75%. Further, in data set [1], the inhibition at 10 pM came out at 66%, the inhibition at 50 pM is 68% and the inhibition at 0.0001 µM came to 90%.

Regarding `NCCCC[C@@H]1NC(=O)CNC1=O` [Compound 1, (S)-3-(4-aminobutyl)piperazine-2,5-dione], in the data set on TGF-β mediated by TSP-1, the inhibition at 0.01 µM is 38%, the inhibition at 0.1 µM worked out at 59% and the inhibition at 1 µM worked out at 74.5%. Moreover, in data set [1], the inhibition at 10 pM was -67%, the inhibition at 50 pM was -4% and the inhibition at 0.0001 µM is 37%.

As to `CC1(C)NC(=O)[C@H](Cc2ccc(N)cc2)NC1=O` [Compound 4, (S)-6-(4-aminobenzyl)-3,3-dimethylpiperazine-2,5-dione], in the data set on TGF-β mediated by TSP-1, the inhibition at 0.01 µM is 80%, the inhibition at 0.1 µM worked out at 78%, the inhibition at 1 µM worked out at 83% and 1 nM corresponded to half-maximal inhibition (IC50).

For the compound `CC1(C)NC(=O)[C@H](Cc2cccc(CN)c2)NC1=O` [Compound 6], in the data set with TGF-β mediated by TSP-1, the inhibition at 0.01 µM amounted to 75%, the inhibition at 0.1 µM was found to be 96%, the inhibition at 1 µM stood at 97% and the IC50 stood at 1 nM.

For the compound `NC(=O)c1ccc(C[C@@H]2NC(=O)C3(CCCC3)NC2=O)cc1` [Compound 13, (S)-4-((7,10-dioxo-6,9-diazaspiro[4.5]decan-8-yl)methyl)benzamide], in the data set with TGF-β mediated by TSP-1, the inhibition at 0.01 µM came to 8%, the inhibition at 0.1 µM was 24.6% and the inhibition at 1 µM was 19.6%.
